Source: patent US7312245B2 (priority 2001, dated 2007)
Read-outs that look alike come from different tables or passages of the source.

Key:
Format in all cases: in vivo
Pyricularia oryzae [1] = settings: spray application of wettable powder diluted to 500 ppm; rice Koshihikari 2-leaf stage; spray-inoculated with Pyricularia oryzae spores; examined after 7 days
Pyricularia oryzae [2] = settings: granules applied to water surface at 3 kg/10 ares; rice Koshihikari; inoculated 30 days after application; lesions checked after 1 week
Pyricularia oryzae [3] = settings: nursery box treated with granules 50 g per box; rice Koshihikari; inoculated 30 days after transplantation; lesions counted after 1 week

SMILES | Grade of Effect (preventive value, rice blast controlling effect) (Pyricularia oryzae [1]) | Grade of Effect (preventive value, rice blast controlling effect) (Pyricularia oryzae [2]) | Grade of Effect (preventive value, rice blast controlling effect) (Pyricularia oryzae [3])
CC(C)C(CNC(=O)c1ccccc1)NC(=O)Oc1ccccc1 (stereo not drawn) [compound 526] | A (100%) | A (From 80% to 100%) | A (From 80% to 100%)
COC(=O)NC(CNC(=O)c1ccc(C)cc1)C(C)C (stereo not drawn) [compound 30] | A (100%) | A (From 80% to 100%) | A (From 80% to 100%)
CSCCOC(=O)NC(CNC(=O)c1ccc(Cl)cc1)C(C)C (stereo not drawn) [compound 1258] | A (100%) | A (From 80% to 100%) | A (From 80% to 100%)
Cc1ccc(C(=O)NCC(NC(=O)OCC(C)(C)C)C(C)C)cc1 (stereo not drawn) [compound 1201] | A (100%) | A (From 80% to 100%) | A (From 80% to 100%)
CC(C)C(CNC(=O)c1ccc(Cl)cc1)NC(=O)OCc1ccc(Cl)cc1 (stereo not drawn) [compound 1063] | A (100%) | A (From 80% to 100%) | A (From 80% to 100%)
CC(C)C(CNC(=O)c1ccc(Cl)cc1)NC(=O)OCC1CCCO1 (stereo not drawn) [compound 1153] | A (100%) | A (From 80% to 100%) | A (From 80% to 100%)
CC(C)C(CNC(=O)c1ccc(Cl)cc1)NC(=O)OCc1ccoc1 (stereo not drawn) [compound 1138] | A (100%) | A (From 80% to 100%) | A (From 80% to 100%)
Cc1ccc(C(=O)NCC(NC(=O)OCC2CCCO2)C(C)C)cc1 (stereo not drawn) [compound 1156] | A (100%) | A (From 80% to 100%) | A (From 80% to 100%)
Cc1ccc(C(=O)NCC(C)(NC(=O)OC(C)(C)C)C(C)C)cc1 (stereo not drawn) [compound 469] | B (80% or more and less than 100%) | B (50% or more and less than 80%) | B (50% or more and less than 80%)
Cc1ccc(C(=O)NCC(NC(=O)OC(C)C)C(C)C)s1 (stereo not drawn) [compound 243] | A (100%) | A (From 80% to 100%) | A (From 80% to 100%)
Cc1ccc(C(=O)NCC(NC(=O)OC(C)C)c2ccccc2)cc1 (stereo not drawn) [compound 279] | A (100%) | A (From 80% to 100%) | A (From 80% to 100%)
Cc1ccc(C(=O)NCC(Cc2ccccc2)NC(=O)OC(C)C)cc1 (stereo not drawn) [compound 289] | A (100%) | A (From 80% to 100%) | A (From 80% to 100%)
CC(C)C(CNC(=O)c1ccc(Cl)cc1)NC(=O)OCc1cccs1 (stereo not drawn) [compound 1168] | A (100%) | A (From 80% to 100%) | A (From 80% to 100%)
Cc1ccc(COC(=O)NC(CNC(=O)c2ccc(C)cc2)C(C)C)cc1 (stereo not drawn) [compound 1050] | A (100%) | A (From 80% to 100%) | A (From 80% to 100%)
O=C(NC(CNC(=O)c1ccccc1)c1ccccc1)OCc1ccccc1 (stereo not drawn) [compound 636, N-(benzyloxycarbonyl)-N′-benzoyl-1-phenyl-1,2-ethylenediamine] | A (100%) | A (From 80% to 100%) | A (From 80% to 100%)
C=CCOC(=O)NC(CNC(=O)c1ccc(C)cc1)C(C)C (stereo not drawn) [compound 742] | A (100%) | A (From 80% to 100%) | A (From 80% to 100%)
CC(C)C(CNC(=O)c1ccc(Cl)cc1)NC(=O)OC(C)C(C)C (stereo not drawn) [compound 1228] | A (100%) | A (From 80% to 100%) | A (From 80% to 100%)
CC(C)C(NC(=O)OC(C)(C)C)C(C)NC(=O)c1ccc(Cl)cc1 (stereo not drawn) [compound 471] | A (100%) | A (From 80% to 100%) | A (From 80% to 100%)
COC(=O)NC(C)CNC(=O)c1ccc(Cl)cc1 (stereo not drawn) [compound 4] | A (100%) | A (From 80% to 100%) | A (From 80% to 100%)
C=C(C)COC(=O)NC(CNC(=O)c1ccc(Cl)cc1)C(C)C (stereo not drawn) [compound 1213] | A (100%) | A (From 80% to 100%) | A (From 80% to 100%)
Cc1ccc(C(=O)NCC(NC(=O)OC(C)C(C)C)C(C)C)cc1 (stereo not drawn) [compound 1231] | A (100%) | A (From 80% to 100%) | A (From 80% to 100%)
Cc1ccc(C(=O)NCC(NC(=O)OC(C)C)c2ccc(Cl)cc2)cc1 (stereo not drawn) [compound 284] | A (100%) | A (From 80% to 100%) | A (From 80% to 100%)
Cc1ccc(C(=O)NC(C)C(NC(=O)OC(C)(C)C)C(C)C)cc1 (stereo not drawn) [compound 470] | A (100%) | A (From 80% to 100%) | A (From 80% to 100%)
CC(C)C(CNC(=O)c1ccc(Cl)cc1)NC(=O)OCC(C)(C)C (stereo not drawn) [compound 1198] | A (100%) | A (From 80% to 100%) | A (From 80% to 100%)
CC(CNC(=O)c1ccccc1)NC(=O)c1ccccc1 (stereo not drawn) [Formula (7), reference compound] | D (less than 50%) | C (less than 50%) | C (less than 50%)
